Measurements published in patent US11083701B2, “Dermatomycosis treatment agent” (priority 2015, dated 2021).
Values after ≈ are worked out from the molar mass of the structure shown.

Legend:
[1] = system: T. mentagrophytes, IFM59813; test: Drug-sensitivity test, microdilution method, CLSI guidelines; assay type: cell-based, Trichophyton mentagrophytes
Protocol: (§1) The antimicrobial activity of therapeutic agents for treating dermatomycosis was evaluated and confirmed by performing a drug-sensitivity test with major pathogenic fungi in accordance with the CLSI (Clinical Laboratory Standards Institute, U.S.) guidelines. The pathogenic fungi selected were genus Trichophyton (T. rubrum, T. mentagrophytes), genus Microsporum (M. gypseum), genus Epidermophyton (E. floccosum), genus Candida (C. albicans), genus Aspergillus (A. fumigatus), and genus Cryptococcus (C. neoformans). The Examples show the test results. The antimicrobial activity of the compounds of the present invention (MIC, mg/ml) against T. mentagrophytes, which is a typical dermatophytic fungus, is as follows: tripotassium citrate 3.1; and trisodium citrate 6.3. A drug-sensitivity test with a fungus belonging to genus Malassezia (M. furfur) was also performed in accordance with the method of Sugita et al., which employs an agar dilution method (T. Sugita et al., J. Clinical Microbiology, 43, 2824-2829 (2005)). The antimicrobial activity against M. furfur (MIC, mg/ml) was as follows: tripotassium citrate 10.0.
In these drug-sensitivity tests, the medium contained Mg ions and Ca ions necessary for fungal conidia (spores) to germinate and grow. Because carboxyl groups of organic acids bind to these ions, organic acids have competitive inhibitory activity on fungal growth.
In the antimicrobial activity measurement method in accordance with the CLSI guidelines described above, an excessively large amount of magnesium ions and calcium ions is added to the RPMI-1640 medium for use. Thus, the trialkali metal salt of citric acid added to the test system binds completely to the excessively large amount of metal ions, resulting in an apparently large MIC value. For this reason, the ICP analytical method was performed to measure the content of magnesium ions and calcium ions in a test solution used as a blank test in this test system (a solution obtained by adding a solution containing spores of T. mentagrophytes to a RPMI-1640 medium solution, and performing a culture treatment) and to measure the content of magnesium ions and calcium ions in the original RPMI-1640 medium solution, thereby calculating the amount of alkali metal ions absorbed by the spores of T. mentagrophytes. The amount of the citric salt that can bind to all of the alkali metal ions absorbed by the spores is the substantial MIC value.
The antifungal activity of tripotassium citrate and trisodium citrate against a variety of pathogenic fungi was evaluated by performing a drug-sensitivity test. The test was performed using a microdilution method in accordance with the CLSI (Clinical Laboratory Standards Institute, U.S.) guidelines. […]

Candida krusei = settings: Non-patent Literature 3; cited from earlier work
Aspergillus oryzae = settings: Non-patent Literature 3; cited from earlier work
M. furfur = test: Malassezia drug-sensitivity test, method of Sugita et al. (agar dilution); assay type: cell-based; settings: mLNA medium, 32° C., 7 days
Protocol: as §1
The antimicrobial activity of tripotassium citrate against fungi belonging to genus Malassezia was evaluated by performing a drug-sensitivity test with human-related Malassezia species, in accordance with the method disclosed in Sugita et al. (2005). […]

C. neoformans, IFM5807 = test: Drug-sensitivity test, microdilution method, CLSI guidelines; assay type: cell-based, Cryptococcus neoformans
Protocol: as §1, with “10.0. […]” for “10.0.”
(§2) The antifungal activity of tripotassium citrate and trisodium citrate against a variety of pathogenic fungi was evaluated by performing a drug-sensitivity test. […]

[2] = system: tinea unguium (Clavispora lusitaniae isolated); test: Human case, Example 10: external treatment of tinea unguium; assay type: in vivo; settings: 5% solution, sprayed once daily, after one and a half months
Protocol: (§3) The curative action of trialkali metal salts of citric acid on dermatomycosis was determined based on whether there was a therapeutic effect on human tinea. The cases of tinea used in the test include a variety of cases, such as vesicular tinea on the skin, interdigital tinea, hyperkeratotic tinea, tinea corporis, and tinea unguium. […] In these cases, no skin irritation due to the medicinal agents was confirmed. In many cases described in the Examples, Trichophyton fungus was isolated and identified as a pathogenic fungus; additionally, Example 10 describes a case in which Candida was isolated and identified, and Example 11 describes a case in which Aspergillus was isolated and identified.
A 5% solution of tripotassium citrate prepared in the same manner as in Example 9 was sufficiently sprayed once daily on tinea unguium on the tip of the nail of the fourth finger of the right hand. […] From the nail specimen of this affected area, a Candida fungus was isolated and confirmed to be Clavispora lusitaniae (the teleomorph of Candida lusitaniae) by gene analysis.

interdigital tinea = test: Human case, Example 7: external treatment of interdigital tinea; assay type: in vivo; settings: 3% test solution, sprayed once daily, after about 2 months
Protocol: as §3
A 3% test solution prepared in the same manner as in Example 4 was sprayed once daily onto interdigital tinea that extensively developed between the toes of the feet.

[3] = system: hyperkeratotic tinea (Trichophyton mentagrophytes isolated); test: Human case, Example 3: external treatment of hyperkeratotic tinea; assay type: in vivo; settings: 0.5% test solution in 20% ethanol, sprayed three times daily, after about 3 months
Protocol: as §3
20% ethanol was added to 5.3 g of tripotassium citrate monohydrate to give 1000 g, thereby preparing a 0.5% test solution. The 0.5% test solution was applied to hyperkeratotic tinea that extensively developed on the arch on the sole of a foot by spraying the solution three times daily. […] From the area affected by this tinea, Trichophyton mentagrophytes, which is one type of Trichophyton fungi, was isolated and confirmed.

A. fumigatus, IFM4942 = test: Drug-sensitivity test, microdilution method, CLSI guidelines; assay type: cell-based, Aspergillus fumigatus
Protocol: as §1, with “10.0. […]” for “10.0.”
as §2

[4] = system: tinea of nail and surrounding skin (Trichophyton rubrum isolated); test: Human case, Example 9: immersion treatment of fingernail tinea; assay type: in vivo; settings: 5% test solution, finger immersed 5 hours once every 2 days, after 3 months
Protocol: as §3
20 mL of glycerin (84-87% aqueous solution) was added to 106 g of tripotassium citrate monohydrate, and 15% ethanol was further added thereto to give 2 L, thereby preparing a 5% test solution. About 2 mL of this test solution was placed into a commercially available fingerstall (size M). The middle finger of the right hand, which developed tinea on the right edge of the nail and the surrounding skin from the tip to the base of the nail, was immersed in the solution for 5 hours once every 2 days. […] From the nail specimen of this case, a Trichophyton fungus was isolated, and confirmed to be Trichophyton rubrum by gene analysis.

[5] = system: small red papules (Aspergillus tubingensis as the pathogen); test: Human case, Example 11: external treatment of small red papules; assay type: in vivo; settings: 5% solution, sprayed once daily, left chest
Protocol: as §3
A 5% solution of tripotassium citrate prepared in the same manner as in Example 9 was sprayed once daily on small red papules that developed on the left chest part. […] From the small red papules, a body fluid was collected, and the pathogen was cultured, followed by gene analysis, thereby confirming Aspergillus tubingensis as the pathogen.

T. rubrum, IFM59814 = test: Drug-sensitivity test, microdilution method, CLSI guidelines; assay type: cell-based, Trichophyton rubrum
Protocol: as §1, with “10.0. […]” for “10.0.”
as §2

[6] = system: thin hyperkeratotic tinea (Trichophyton rubrum isolated); test: Human case, Example 6: external treatment of thin hyperkeratotic tinea; assay type: in vivo; settings: 3% test solution, sprayed once daily, after about 1 month
Protocol: as §3
A 3% test solution prepared in the same manner as in Example 4 was sprayed once daily onto thin hyperkeratotic tinea that extensively developed over around the tip of the nails on the sole of both feet. […] From this affected area of the skin, Trichophyton rubrum was isolated and confirmed.

M. gypseum, IFM58916 = test: Drug-sensitivity test, microdilution method, CLSI guidelines; assay type: cell-based, Microsporum gypseum
Protocol: as §1, with “10.0. […]” for “10.0.”
as §2

E. floccosum, IFM53345 = test: as above; assay type: cell-based, Epidermophyton floccosum
Protocol: as §1, with “10.0. […]” for “10.0.”
as §2

vesicular tinea = test: Human case, Example 4: external treatment of vesicular tinea; assay type: in vivo; settings: 3% test solution, sprayed twice daily; symptom practically disappeared after about 1 month, treatment continued about 1 month more
Protocol: as §3
20 mL of glycerin (84-87% aqueous solution) was added to 63.6 g of tripotassium citrate monohydrate, and 15% ethanol was further added thereto to give 2 L, thereby preparing a 3% test solution. This 3% test solution was applied twice daily, by spraying the solution, to vesicular tinea that extensively developed on the arch of the left foot. After about 1 month, the skin symptom practically disappeared.

[7] = system: tinea in four nails of the left foot; test: Human case, Example 8: immersion treatment of toenail tinea; assay type: in vivo; settings: entire foot immersed 1 hour daily in 3% test solution, after a half year
Protocol: as §3
In the case in which tinea developed in all four nails except the fourth nail of the left foot, the entire foot was immersed for 1 hour daily in a 3% test solution prepared in the same manner as in Example 4. Over the course of the treatment, new nails grew from the base of the nails.

human tinea = test: Curative action on human tinea, overall (Examples 3 to 13); assay type: in vivo; settings: 5% solution applied; relapse of symptoms and pigmentation before the end result
Protocol: as §3
Applying a 5% tripotassium citrate solution on the small red papules on the body made the papules smooth, and relapse of symptoms was observed after every day, with development of pigmentation, and followed by complete cure; this phenomenon was observed quite frequently. The relapse of symptoms was caused by germination of spores, and tripotassium citrate appears to have induced the germination of spores. The biggest factor for the low likelihood of curing dermatomycosis is the presence of spores; even after a treatment with a medicinal agent, if spores remain, the spores germinate, enabling dermatomycosis to return. […]

C. albicans, IFM5740 = test: Drug-sensitivity test, microdilution method, CLSI guidelines; assay type: cell-based, Candida albicans
Protocol: as §1, with “10.0. […]” for “10.0.”
as §2

tinea unguium = test: Human case, Example 12: external treatment of tinea unguium; assay type: in vivo; settings: 10% aqueous solution, sprayed once daily, after a half year
Protocol: as §3
A 10% aqueous solution of tripotassium citrate was prepared. This 10% test solution was sprayed once daily on the right thumbnail, the entirety of which had developed tinea unguium.

tinea corporis = test: Human case, Example 5: external treatment of tinea corporis; assay type: in vivo; settings: 3% test solution, sprayed twice daily, after about 2 months
Protocol: as §3
A 3% test solution of tripotassium citrate prepared in the same manner as in Example 4 was sprayed twice daily onto tinea corporis that extensively developed over the left part of the buttocks. […] Although light brown pigmentation developed on the healed skin, it faded away over time and became less prominent.

Candida albicans = settings: Non-patent Literature 5; cited from earlier work
small red papules = test: Human case, Example 13: external treatment of small red papules; assay type: in vivo; settings: 3% (also printed 5%) test solution, sprayed once daily, left thigh
Protocol: as §3
A 3% test solution of trisodium citrate was prepared in the same manner as in Example 4. This 5% test solution was sprayed once daily on small red papules that developed on the left thigh.

## C[C@@H]1[C@H](O)[C@@H](C)/C=C/C=C/C=C/C=C/C=C/C=C/C=C/[C@H](O[C@@H]2O[C@H](C)[C@@H](O)[C@H](N)[C@@H]2O)C[C@@H]2O[C@](O)(C[C@@H](O)C[C@@H](O)[C@H](O)CC[C@@H](O)C[C@@H](O)CC(=O)O[C@H]1C)C[C@H](O)[C@H]2C(=O)O [amphotericin B, reference compound]
[1]
  MIC: 2000 µg/mL (≈ 2160 µM)

## O=C(O)CC(O)(CC(=O)O)C(=O)O [citric acid, reference compound]
Candida krusei
  antimicrobial activity: did not exhibit antimicrobial activity
Aspergillus oryzae
  antimicrobial activity: did not exhibit antimicrobial activity

## O=C([O-])CC(O)(CC(=O)[O-])C(=O)[O-].[K+].[K+].[K+] [tripotassium citrate]
M. furfur
  MIC: 10000 µg/mL
C. neoformans, IFM5807
  MIC: 390 µg/mL
[2]
  curative effect on tinea unguium (Candida): tinea unguium was cured
Interdigital tinea
  curative effect on interdigital tinea: the skin symptom disappeared, and healthy skin grew back
[3]
  curative effect on hyperkeratotic tinea: hyperkeratotic tinea disappeared, and clean skin grew back
A. fumigatus, IFM4942
  MIC: 6300 µg/mL
[4]
  curative effect on tinea of fingernail and surrounding skin: a healthy nail and skin grew back
[5]
  effect on small red papules (Aspergillus): immediately shrank, and after one week, pigmentation and cicatrization occurred
T. rubrum, IFM59814
  MIC: 12500 µg/mL
[1]
  MIC: 3100 µg/mL
[1]; corrected for the metal ions absorbed by spores (ICP analysis)
  corrected MIC value: 54 µg/mL
[6]
  curative effect on thin hyperkeratotic tinea: pink-color, healthy skin grew back
M. gypseum, IFM58916
  MIC: 12500 µg/mL
E. floccosum, IFM53345
  MIC: 1600 µg/mL
Vesicular tinea
  curative effect on vesicular tinea: this tinea was cured
[7]
  curative effect on nail tinea (foot): tinea in all of the nails was fully cured
Human tinea
  effect on small red papules on the body: complete cure
C. albicans, IFM5740
  MIC: 25000 µg/mL
Tinea unguium
  curative effect on tinea unguium: a healthy nail returned
Tinea corporis
  curative effect on tinea corporis: tinea corporis disappeared, and healthy skin grew back

## O=C([O-])CC(O)(CC(=O)[O-])C(=O)[O-].[Na+].[Na+].[Na+] [trisodium citrate]
Candida krusei
  antimicrobial activity: did not exhibit antimicrobial activity
Aspergillus oryzae
  antimicrobial activity: did not exhibit antimicrobial activity
[1]
  MIC: 6300 µg/mL
Candida albicans
  antimicrobial activity: exhibited antimicrobial activity
Small red papules
  effect on small red papules: immediately shrank, and after 2 weeks, cicatrization and pigmentation occurred
